Assay: In-vitro pH cycling study of enamel fluoride uptake (enamel fluoridation)
Design: species or system human
Conditions: both salts at levels providing 1100 ppm of fluoride ion; versus sodium fluoride
Experimental: An in-vitro pH cycling study was conducted to evaluate the effect of excess metals and its modulation on fluoride uptake in pre-demineralized human enamel specimens.

[F][Sn][F] [stannous fluoride]
enamel fluoridation: less than what is typically seen with sodium fluoride

Source: patent publication US20160324738A1, “Oral Compositions Containing Stannous” (The Procter & Gamble Company, priority 2015, published 2016)
